Earlier results in patent publication US7109380B2, “Cyclopentenedione antifungal compounds and methods for their use” (The University of Mississippi, priority 2004, dated 2006).

Key:
Conditions in all cases: background; cited from earlier work
[1] = tested on: wheat leaf rust caused by Puccinia recondite
[2] = tested on: several cancer cell lines
human chymase = human chymase (Homo sapiens, UniProt P23946)
human chymase, sequence (P23946 22-247): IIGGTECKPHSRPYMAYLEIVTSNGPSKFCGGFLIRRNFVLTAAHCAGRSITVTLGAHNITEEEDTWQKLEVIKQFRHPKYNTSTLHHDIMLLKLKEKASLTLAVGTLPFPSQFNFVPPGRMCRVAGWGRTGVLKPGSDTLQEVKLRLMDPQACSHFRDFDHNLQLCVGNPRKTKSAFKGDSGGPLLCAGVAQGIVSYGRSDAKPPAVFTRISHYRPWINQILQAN

COC1=CC(=O)/C(=C(\C=C\c2ccccc2)OC)C1=O [methyllucidone]
Antifungal activity against wheat leaf rust (in words) [1]: moderately antifungal activity

COC(/C=C/c1ccccc1)=C1C(=O)C(OC)=C(OC)C1=O [methyllinderone]
Cytotoxicity (in words) [2]: cytotoxic | Inhibition of human chymase (in words) (human chymase): moderate inhibitor
